Data as given in patent publication US4956384A, “1,4:3,6-dianhydrosorbitol 2-mononitrate and 5-mononitrate esters and pharmaceutical compositions therefrom” (Chiesi Farmaceutici S.p.A., priority 1987, dated 1990).
Read-outs that look alike come from different tables or passages of the source.

Experiments:
[1] = tested on: helicoidal strips of rabbit aorta; assay: In vitro vasodilating activity: inhibition of K+-induced contraction of aorta strips; type: cell-based, male albino rabbits (New Zealand strain); settings: for IC50: Oryctolagus cuniculus, read-out: ED50 (concentration causing a 50% inhibition of contraction); for Potency ratio, In vitro: Table III
Procedure: Aorta strips from male albino rabbits (New Zealand strain), prepared according to the method by Furchgott and Bhadrakom--J. Pharm. Exp. Ther. 108, 129 (1953), were contracted with a solution enriched in K^+ (100 mM). When the contraction was stable, the test compounds were added, according to the method of cumulative dosages.
The responses were isometrically recorded and expressed as contraction percentage inhibition. The concentration causing 50% inhibition (ED50) was calculated on the basis of the equation of the linear tract of the dose-response curves. The obtained results expressed as ED50 values are reported in tables I and II (which respectively relate to the compounds substituted at the 2-and and 5-positions), together with the values of the octanol/water partition coefficient. The potency ratio for each compound, in comparison with the starting mononitrate, IS-2-N and IS-5-N, is reported in the same tables.

[2] = octanol/water partition coefficient; type: physicochemical; settings: for logP: octanol/water, read-out: Partition coeff. (octanol/H2O) (converted)
[3] = Hypotensive activity in anesthetized rats (mean arterious pressure, i.v. bolus); type: in vivo, male albino rats (D strain, Charles River); settings: for ED20: iv, read-out: ED20, dose reducing by 20% the mean arterious pressure (graphically calculated); for Potency ratio, In vivo: Table III
Procedure: Male albino rats were used (D strain, Charles River) anesthetized with a starting dose of sodium pentobarbital of 60 mg/kg i.p. and thermoregulated at 37° C. Mean arterious pressure was monitored at right carotidis arteria, while the compounds were administered as a bolus into the jugular vein, at constant volumes of 0.3 and 1 ml/kg.
The results, expressed as ED20, dose causing a 20% reduction in the mean arterious pressure (graphically calculated) are expressed in table III, relating to compounds substituted at the 2- and 5-positions.

[4] = Table I, in comparison with isosorbide 5-nitrate
[5] = Table I, 2-acyl derivatives of isosorbide 5-nitrate
[6] = Table II, in comparison with isosorbide 2-nitrate
[7] = Table II, 5-acyl derivatives of isosorbide 2-nitrate
[8] = Table I, 2-acyl derivatives of isosorbide 5-nitrate, K+ 100 mM
[9] = Table II, 5-acyl derivatives of isosorbide 2-nitrate, K+ 100 mM

SMILES	Potency ratios (confidence limits) [1, 4]	Potency ratio, In vitro ([1]; relative to IS-5-N)	logP [2, 5]	Potency ratio, In vivo ([3]; relative to IS-5-N)	Potency ratios (confidence limits) [1, 6]	Potency ratio, In vitro ([1]; relative to IS-2-N)	logP [2, 7]	Potency ratio, In vivo ([3]; relative to IS-2-N)	ED20 ([3]; anesthetized rat) [µmol/kg]	further results
O=[N+]([O-])O[C@@H]1CO[C@H]2[C@@H]1OC[C@@H]2O [IS-5-N, 1,4:3,6-dianhydrosorbitol 5-nitrate, reference compound]	1.0	1	-0.0501	1	–	–	–	–	–	IC50 [1]: 253 µM; ED20 ([3]; Rattus norvegicus): 150 µmol/kg
COc1ccc(C=CC(=O)O[C@@H]2CO[C@H]3[C@@H]2OC[C@@H]3O[N+](=O)[O-])cc1OC [VII, 1,4:3,6-dianhydrosorbitol 5-(3,4-dimethoxy)cinnamate 2-nitrate]	–	–	–	–	~1	1	2.2	≈ 40	0.3	–
CCOC(=O)CCCCC(=O)O[C@H]1CO[C@H]2[C@@H]1OC[C@H]2O[N+](=O)[O-] [XI, 1,4:3,6-dianhydrosorbitol 5-nitrate 2-(5-ethoxycarbonyl)pentanoate]	6.91 (4.78-9.88)	7	1.48	≈ 21	–	–	–	–	7	IC50 [1, 8]: 46.4 µM
CC(=O)O[C@H]1CO[C@H]2[C@@H]1OC[C@H]2O[N+](=O)[O-] [IS-2A-5N, isosorbide 2-acetate 5-nitrate, reference compound]	8.21 (5.11-13.13)	8	0.579	≈ 60	–	–	–	–	2.5	IC50 [1, 8]: 33.9 µM
CCCCCCCCCCCCCCCC(=O)O[C@@H]1CO[C@H]2[C@@H]1OC[C@@H]2O[N+](=O)[O-] [VIII, 1,4:3,6-dianhydrosorbitol 2-nitrate 5-palmitate]	–	–	–	–	–	–	1.51	–	–	–
COc1cc(C=CC(=O)O[C@H]2CO[C@H]3[C@@H]2OC[C@H]3O[N+](=O)[O-])cc(OC)c1OC [VI, 1,4:3,6-dianhydrosorbitol 2-(3,4,5-trimethoxy)cinnamate 5-nitrate]	7.08 (4.21-11.67)	7	2.44	≈ 94	–	–	–	–	1.6	–
COc1cc(C(=O)O[C@@H]2CO[C@H]3[C@@H]2OC[C@@H]3O[N+](=O)[O-])cc(OC)c1OC [X, 1,4:3,6-dianhydrosorbitol 5-(3,4,5-trimethoxy)-benzoate 2-nitrate]	–	–	–	–	1.58 (1.13-2.19)	1	2.08	≈ 30	0.4	IC50 [1, 9]: 13.8 µM; times more active than the starting mononitrate ([1]; in vitro, II vs IS-5N, X vs IS-2N): 1.58 times; times more lipophilic than the starting mononitrate [2]: 200 times
CC(=O)O[C@@H]1CO[C@H]2[C@@H]1OC[C@@H]2O[N+](=O)[O-] [IS-5A-2N, isosorbide 5-acetate 2-nitrate, reference compound]	–	–	–	–	6.55 (4.60-9.17)	6.5	0.418	≈ 5.4	2.2	IC50 [1, 9]: 3.97 µM
CCOC(=O)CCCCC(=O)O[C@@H]1CO[C@H]2[C@@H]1OC[C@@H]2O[N+](=O)[O-] [XIII, 1,4:3,6-dianhydrosorbitol 2-nitrate 5-(5-ethoxycarbonyl)-pentanoate]	–	–	–	–	6.65 (4.81-9.10)	6.6	1.58	≈ 4.8	2.5	–
COc1cc(C=CC(=O)O[C@@H]2CO[C@H]3[C@@H]2OC[C@@H]3O[N+](=O)[O-])cc(OC)c1OC [IX, 1,4:3,6-dianhydrosorbitol 5-(3,4,5-trimethoxy)cinnamate 2-nitrate]	–	–	–	–	~3	6	2.5	≈ 20	0.6	–
CCC(=O)O[C@H]1CO[C@H]2[C@@H]1OC[C@H]2O[N+](=O)[O-] [IS-2P-5N, isosorbide 5-nitrate 2-propionate, reference compound]	5.19 (3.53-7.52)	5	1.15	≈ 65	–	–	–	–	2.3	IC50 [1, 8]: 56.8 µM
CCC(=O)O[C@@H]1CO[C@H]2[C@@H]1OC[C@@H]2O[N+](=O)[O-] [IS-5P-2N, isosorbide 2-nitrate 5-propionate, reference compound]	–	–	–	–	15.59 (10.74-22.44)	15.6	0.947	–	–	IC50 [1, 9]: 1.54 µM
O=C(CCC(=O)O[C@H]1CO[C@H]2[C@@H]1OC[C@H]2O[N+](=O)[O-])O[C@H]1CO[C@H]2[C@@H]1OC[C@H]2O[N+](=O)[O-] [XII, bis-(1,4:3,6-dianhydrosorbitol 5-nitrate-2-il)succinate]	~20	7	1.81	≈ 21	–	–	–	–	–	ED20 ([3]; Rattus norvegicus): 7 µmol/kg
O=[N+]([O-])O[C@H]1CO[C@H]2[C@@H]1OC[C@H]2O [IS-2-N, 1,4:3,6-dianhydrosorbitol 2-nitrate, reference compound]	–	–	–	–	1.0	1	-0.231	≈ 1	–	IC50 [1]: 23.9 µM; ED20 ([3]; Rattus norvegicus): 12 µmol/kg
O=C(O)CCC(=O)O[C@H]1CO[C@H]2[C@@H]1OC[C@H]2O[N+](=O)[O-] [XIV, 1,4:3,6-dianhydrosorbitol 5-nitrate 2-(3-carboxy)propionate]	0.16 (0.10-0.25)	0.2	0.294	≈ 0.5	–	–	–	–	–	IC50 [1]: 2100 µM; ED20 ([3]; Rattus norvegicus): 300 µmol/kg
CCCCCCCCCCCCCCCC(=O)O[C@H]1CO[C@H]2[C@@H]1OC[C@H]2O[N+](=O)[O-] [III, 1,4:3,6-dianhydrosorbitol 5-nitrate 2-palmitate]	–	–	1.35	–	–	–	–	–	–	IC50 [1, 8]: > 10 µM
COc1ccc(C=CC(=O)O[C@H]2CO[C@H]3[C@@H]2OC[C@H]3O[N+](=O)[O-])cc1OC [IV, 1,4:3,6-dianhydrosorbitol 2-(3,4-dimethoxy)cinnamate 5-nitrate]	~3	3	2.96	≈ 83	–	–	–	–	1.8	–
O=C(C=Cc1ccccc1)O[C@H]1CO[C@H]2[C@@H]1OC[C@H]2O[N+](=O)[O-] [V, 1,4:3,6-dianhydrosorbitol 2-cinnamate 5-nitrate]	~1	1	–	≈ 79	–	–	–	–	1.9	Partition coeff. (octanol/H2O) [2]: very high
